Test system: HCV 1b genotype replicon
Assay: HCV genotype-1b replicon assay (qRT-PCR or luciferase)
Format: cell-based
Settings: Hepatitis C virus, read-out: Genotype-1b replicon EC50 Range
Text: HCV replicon cell lines (kindly provided by R. Bartenschlager) isolated from colonies as described by Lohman et. al. (Lohman et al. (1999) Science 285: 110-113, expressly incorporated by reference in its entirety) and used for all experiments. The HCV replicon has the nucleic acid sequence set forth in EMBL Accession No.: AJ242651, the coding sequence of which is from nucleotides 1801 to 8406.
The coding sequence of the published HCV replicon was synthesized and subsequently assembled in a modified plasmid pBR322 (Promega, Madison, Wis.) using standard molecular biology techniques. […]
EC50 values of single agent compounds and combinations were determined by HCV RNA detection using quantitative RT-PCR, according to the manufacturer's instructions, with a TAQMAN® One-Step RT-PCR Master Mix Reagents Kit (Cat# AB 4309169, Applied Biosystems) on an ABI Model 7500 thermocycler. The TaqMan primers used for detecting and quantifying HCV RNA were obtained from Integrated DNA Technologies. HCV RNA was normalized to GAPDH RNA levels in drug-treated cells, which was detected and quantified using the Human GAPDH Endogenous Control Mix (Applied Biosystems, AB 4310884E). […] Chemical agent cytotoxicity was evaluated using an MTS assay according to the manufacturer's directions (Promega). […]

COC(=O)N[C@H](C(=O)N1CCC[C@H]1C(=O)Nc1ncc(-c2ccc3cc(-c4cnc([C@@H]5CCCN5C(=O)[C@@H](NC(=O)OC)C(C)C)[nH]4)ccc3c2)cn1)C(C)C [Compound 348]
EC50: 1 to 10 nM

Source: US8815928B2, “Hepatitis C virus inhibitors” (priority 2009, dated 2014)
